Experiments:
[1] = molecular target: VEGFR2 (KDR) kinase, purified cytoplasmic domain KDR protein (Homo sapiens (Human), UniProt P35968); test: VEGFR2 Kinase Assay; assay type: biochemical; settings: 2.7 μM ATP, poly-Glu-Tyr (4:1) substrate, 15 minute incubation at 30° C.
Description: (§1) Biochemical KDR kinase assays were performed in 96 well microtiter plates that were coated overnight with 75 μg/well of poly-Glu-Tyr (4:1) in 10 mM Phosphate Buffered Saline (PBS), pH 7.4. The coated plates were washed with 2 mls per well PBS+0.05% Tween-20 (PBS-T), blocked by incubation with PBS containing 1% BSA, then washed with 2 mls per well PBS-T prior to starting the reaction. Reactions were carried out in 100 μL reaction volumes containing 2.7 μM ATP in kinase buffer (50 mM Hepes buffer pH 7.4, 20 mM MgCl2, 0.1 mM MnCl2 and 0.2 mM Na3VO4). Test compounds were reconstituted in 100% DMSO and added to the reaction to give a final DMSO concentration of 5%. Reactions were initiated by the addition 20 ul per well of kinase buffer containing 200-300 ng purified cytoplasmic domain KDR protein (BPS Bioscience, San Diego, Calif.). Following a 15 minute incubation at 30° C., the reactions were washed 2 mls per well PBS-T. 100 μl of a monoclonal anti-phosphotyrosine antibody-peroxidase conjugate diluted 1:10,000 in PBS-T was added to the wells for 30 minutes. Following a 2 mls per well wash with PBS-Tween-20, 100 μl of O-Phenylenediamine Dihydrochloride in phosphate-citrate buffer, containing urea hydrogen peroxide, was added to the wells for 7-10 minutes as a colorimetric substrate for the peroxidase. The reaction was terminated by the addition of 100 μl of 2.5N H2SO4 to each well and read using a microplate ELISA reader set at 492 nm. IC50 values for compound inhibition were calculated directly from graphs of optical density (arbitrary units) versus compound concentration following subtraction of blank values.

[2] = molecular target: PDGFRβ kinase, purified cytoplasmic domain PDGFR-b protein (Homo sapiens (Human), UniProt P09619); test: PDGFRβ Kinase Assay; assay type: biochemical; settings: 36 μM ATP, poly-Glu-Tyr (4:1) substrate, 60 minute incubation at 30° C.
Description: as §1, with “Biochemical PDGFRβ” for “Biochemical KDR”, “75 μg” for “75 μg/well”, “containing 36” for “containing 2.7”, “domain PDGFR-b” for “domain KDR”, “protein (Millipore).” for “protein (BPS Bioscience, San Diego, Calif.).”, “a 60” for “a 15”

Sequence of VEGFR2 (KDR) kinase, purified cytoplasmic domain KDR protein (P35968 786-1356, species assumed): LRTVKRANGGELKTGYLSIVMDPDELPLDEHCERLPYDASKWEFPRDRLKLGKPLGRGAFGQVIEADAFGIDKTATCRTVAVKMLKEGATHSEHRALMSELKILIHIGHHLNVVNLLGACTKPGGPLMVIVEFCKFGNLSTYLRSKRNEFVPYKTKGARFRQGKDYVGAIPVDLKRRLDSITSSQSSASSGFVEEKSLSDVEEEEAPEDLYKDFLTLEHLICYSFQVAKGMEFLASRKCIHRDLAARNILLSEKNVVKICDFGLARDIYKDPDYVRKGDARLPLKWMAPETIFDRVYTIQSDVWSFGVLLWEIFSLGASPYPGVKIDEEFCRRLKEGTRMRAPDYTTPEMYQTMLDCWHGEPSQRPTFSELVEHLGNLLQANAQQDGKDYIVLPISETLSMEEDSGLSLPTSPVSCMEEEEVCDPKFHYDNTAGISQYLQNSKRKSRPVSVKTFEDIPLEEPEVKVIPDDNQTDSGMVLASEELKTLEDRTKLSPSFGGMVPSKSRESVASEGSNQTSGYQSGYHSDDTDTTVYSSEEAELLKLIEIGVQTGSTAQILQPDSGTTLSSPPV
Sequence of PDGFRβ kinase, purified cytoplasmic domain PDGFR-b protein (P09619 554-1106): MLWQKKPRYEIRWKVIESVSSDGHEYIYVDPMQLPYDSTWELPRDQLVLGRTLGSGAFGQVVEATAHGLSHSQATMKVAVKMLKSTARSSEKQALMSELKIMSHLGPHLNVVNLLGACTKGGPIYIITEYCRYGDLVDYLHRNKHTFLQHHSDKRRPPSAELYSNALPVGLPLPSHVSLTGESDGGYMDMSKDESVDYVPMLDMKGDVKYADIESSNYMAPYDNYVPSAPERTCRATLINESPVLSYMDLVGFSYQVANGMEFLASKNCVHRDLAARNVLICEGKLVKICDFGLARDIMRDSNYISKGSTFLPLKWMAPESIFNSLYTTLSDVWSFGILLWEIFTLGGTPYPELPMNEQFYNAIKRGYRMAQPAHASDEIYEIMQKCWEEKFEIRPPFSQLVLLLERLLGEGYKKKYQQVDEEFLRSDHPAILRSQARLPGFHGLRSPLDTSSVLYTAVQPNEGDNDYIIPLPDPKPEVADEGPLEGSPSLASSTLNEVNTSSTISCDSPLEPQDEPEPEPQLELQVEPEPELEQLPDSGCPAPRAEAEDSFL

IC50 [1] [nM]	IC50 [2] [nM]	SMILES
13	140	Cc1cccc(NC(=O)Nc2ccc(-c3[nH]c4ccccc4c3C(N)=O)cc2)c1 [Compound 1, 2-[4-({[(3-methylphenyl)amino]carbonyl}amino)phenyl]-1H-indole-3-carboxamide]
7	61	NC(=O)c1c(-c2ccc(NC(=O)Nc3cccc(C(F)(F)F)c3)cc2)[nH]c2ccccc12 [Compound 2, 2-{4-[({[3-(trifluoromethyl)phenyl]amino}carbonyl)amino]phenyl}-1H-indole-3-carboxamide]
17	267	Cc1ccc(F)c(NC(=O)Nc2ccc(-c3[nH]c4ccccc4c3C(N)=O)cc2)c1 [Compound 3, 2-[4-({[(2-fluoro-5-methylphenyl)amino]carbonyl}amino)phenyl]-1H-indole-3-carboxamide]
7	37	CCc1cccc(NC(=O)Nc2ccc(-c3[nH]c4ccccc4c3C(N)=O)cc2)c1 [Compound 4, 2-[4-({[(3-ethylphenyl)amino]carbonyl}amino)phenyl]-1H-indole-3-carboxamide]
> 10000	–	Cc1ccoc1C(=O)Nc1ccc(-c2[nH]c3ccccc3c2C(N)=O)cc1 [Compound 5, 2-{4-[(3-methyl-2-furoyl)amino]phenyl}-1H-indole-3-carboxamide]
> 10000	–	Cc1ccc(F)c(C(=O)Nc2ccc(-c3[nH]c4ccccc4c3C(N)=O)cc2)c1 [Compound 6, 2-{4-[(2-fluoro-5-methylbenzoyl)amino]phenyl}-1H-indole-3-carboxamide]
> 10000	–	Cc1cccc(NC(=O)Nc2cccc(-c3[nH]c4ccccc4c3C(N)=O)c2)c1 [Compound 7, 2-[3-({[(3-methylphenyl)amino]carbonyl}amino)phenyl]-1H-indole-3-carboxamide]
> 10000	–	NC(=O)c1c(-c2cccc(NC(=O)Nc3cccc(C(F)(F)F)c3)c2)[nH]c2ccccc12 [Compound 8, 2-{3-[({[3-(trifluoromethyl)phenyl]amino}carbonyl)amino]phenyl}-1H-indole-3-carboxamide]
> 10000	> 10000	Cc1ccoc1C(=O)Nc1cccc(-c2[nH]c3ccccc3c2C(N)=O)c1 [Compound 9, 2-{3-[(3-methyl-2-furoyl)amino]phenyl}-1H-indole-3-carboxamide]
> 10000	–	Cc1ccc(F)c(C(=O)Nc2cccc(-c3[nH]c4ccccc4c3C(N)=O)c2)c1 [Compound 10, 2-{3-[(2-fluoro-5-methylbenzoyl)amino]phenyl}-1H-indole-3-carboxamide]

— patent US9403803B2, “Indole-3-carboxamides as kinase inhibitors” (Allergan, Inc., priority 2014, dated 2016)
